PubChem BioAssay (NCI)
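Test compounds were applied to cells in 96-well plates for 48 hours at 5 doses. TGI marks complete inhibition of growth.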

Assays:
Test in all cases: NCI anticancer screen, dose series, 48 h
SK-MEL-2 melanoma = system: SK-MEL-2 melanoma
SK-MEL-5 melanoma = system: SK-MEL-5 melanoma
OVCAR-5 ovarian = system: OVCAR-5 ovarian
EKVX NSCLC = system: EKVX NSCLC
K-562 leukemia = system: K-562 leukemia
T-47D breast = system: T-47D breast
SF-268 CNS = system: SF-268 CNS
M14 melanoma = system: M14 melanoma
U251 CNS = system: U251 CNS
MDA-MB-231 breast = system: MDA-MB-231 breast
NCI-H226 lung = system: NCI-H226 lung
SN12C renal = system: SN12C renal
BT-549 breast = system: BT-549 breast

| Structure (SMILES) | TGI (SK-MEL-2 melanoma) | TGI (SK-MEL-5 melanoma) | TGI (OVCAR-5 ovarian) | TGI (EKVX NSCLC) | TGI (K-562 leukemia) | TGI (T-47D breast) | TGI (SF-268 CNS) | TGI (M14 melanoma) | TGI (U251 CNS) | TGI (MDA-MB-231 breast) | TGI (NCI-H226 lung) | TGI (SN12C renal) | TGI (BT-549 breast) |
| --- | --- | --- | --- | --- | --- | --- | --- | --- | --- | --- | --- | --- | --- |
| Clc1cc(Cl)cc(N=C/C=C/Nc2cc(Cl)cc(Cl)c2)c1 | 40.7 µM | 34.2 µM | 51.9 µM | 26.9 µM | 66.2 µM | > 100 µM | 47.6 µM | 47.6 µM | 33.5 µM | 30.2 µM | 32.8 µM | 38.8 µM | > 100 µM |
| CCc1c(C)c(C#N)c(=S)n(C2OC(COC(C)=O)C(OC(C)=O)C(OC(C)=O)C2OC(C)=O)c1-c1ccccc1 (centres undefined) | > 31.6 µM | > 31.6 µM | > 31.6 µM | > 100 µM | 47.2 µM | > 31.6 µM | > 31.6 µM | > 31.6 µM | 31 µM | > 31.6 µM | > 31.6 µM | > 31.6 µM | > 100 µM |
| c1ccc2oc(-c3ccc(-c4nc5ccccc5o4)c4c3CC4)nc2c1 | > 100 µM | > 100 µM | > 100 µM | > 100 µM | > 100 µM | > 100 µM | > 100 µM | > 100 µM | > 100 µM | > 100 µM | > 100 µM | > 100 µM | > 100 µM |
| COC(=O)c1ccc2c(c1)S/C(=C/c1ccc3ccc4cccc5ccc1c3c45)S2 | > 100 µM | > 100 µM | > 100 µM | > 100 µM | > 100 µM | > 100 µM | > 100 µM | > 100 µM | > 100 µM | > 100 µM | > 100 µM | > 100 µM | > 100 µM |
| COc1ccc(N2C(=O)/C(=C\c3cc(OC)c(OC)c(OC)c3)SC2c2ccccc2)cc1 (centres undefined) | > 100 µM | > 100 µM | > 100 µM | > 100 µM | > 100 µM | > 100 µM | > 100 µM | > 100 µM | > 100 µM | > 100 µM | > 100 µM | > 100 µM | > 100 µM |
| CCOC(=O)c1sc2nc(SC)nc3c2c1NCN3c1ccc2c(c1)OCO2 | 58.8 µM | > 100 µM | > 100 µM | > 100 µM | > 100 µM | > 100 µM | 18 µM | 71.2 µM | 23.1 µM | 43 µM | > 100 µM | > 100 µM | > 100 µM |
| Cc1cc(N(CCC#N)CCC#N)ccc1/C(N=Nc1cccc(Cl)c1)=N/NC(=O)c1cc(Cl)ccc1O | 36.1 µM | 26.9 µM | > 100 µM | 39.6 µM | > 100 µM | 60.6 µM | 75.2 µM | 49.6 µM | > 100 µM | 49 µM | 84.2 µM | 61.3 µM | 62 µM |
| c1cc2nnc1SCCCSc1ccc(nn1)SCCCS2 | > 86.8 µM | > 100 µM | > 100 µM | > 100 µM | > 100 µM | > 100 µM | > 100 µM | > 57.6 µM | > 86.9 µM | > 100 µM | > 94.1 µM | > 95.6 µM | > 100 µM |
| COc1cc2c(c(O)c1OC)C(=O)[C@@H]1CCC(=O)N1C2 | > 100 µM | > 100 µM | > 100 µM | > 100 µM | > 100 µM | > 100 µM | > 100 µM | > 100 µM | > 100 µM | > 100 µM | > 100 µM | > 100 µM | > 100 µM |
| N[C@H](C(=O)O)[C@@H]1CC(Br)=NO1 | > 100 µM | > 100 µM | > 100 µM | > 100 µM | > 100 µM | > 100 µM | > 100 µM | > 100 µM | > 100 µM | > 100 µM | > 100 µM | > 100 µM | > 100 µM |
| COc1ccc2c(c1)c1c(n2CCN(C)C)-c2ccccc2CC1 | 30.3 µM | 32.7 µM | 32.2 µM | 24.4 µM | 29.8 µM | 31.5 µM | 32.7 µM | 29.3 µM | 27.2 µM | 27.2 µM | 24.6 µM | 28.1 µM | 30.7 µM |
| CC(=O)OCC(=O)O[C@@H]1[C@H]2[C@@H](OC(=O)c3ccccc3)[C@@H](C)C[C@]2(O)[C@H](OC(C)=O)[C@@]2(C)C(OC(C)=O)[C@]1(OC(C)=O)C[C@H]1C(=O)C(C)(C)C[C@@H]12 (some centres undefined) | > 50 µM | > 50 µM | > 50 µM | > 50 µM | > 50 µM | > 50 µM | > 50 µM | > 50 µM | > 50 µM | > 50 µM | > 50 µM | > 50 µM | > 50 µM |
| CCOC(=O)CNC(=O)C(CSC(=O)N(O)c1ccc(Cl)cc1)NC(=O)CCC(N)C(=O)OCC (centres undefined) | > 50 µM | > 50 µM | > 50 µM | > 50 µM | > 50 µM | > 50 µM | > 50 µM | > 50 µM | > 50 µM | > 50 µM | > 50 µM | > 50 µM | > 50 µM |
